US20020132817A1, “Heterocyclic compounds, their production and use” (priority 1998, published 2002)

Tests used:
human NK2 receptor = biological target: T1, human NK2 receptor (Homo sapiens, UniProt P21452); assay: Binding inhibitory activity toward human NK2 receptor; conditions: (2-[125I]iodohistidyl1)Neurokinin A 0.1 nM, receptor expressed in COS-7 cells, room temperature 60 min
T1 construct: expressed in transfected cells; host or cells: COS-7 cells, transient transfection with an SRa-promoter expression vector; membrane preparation
T1 sequence (P21452 1-398): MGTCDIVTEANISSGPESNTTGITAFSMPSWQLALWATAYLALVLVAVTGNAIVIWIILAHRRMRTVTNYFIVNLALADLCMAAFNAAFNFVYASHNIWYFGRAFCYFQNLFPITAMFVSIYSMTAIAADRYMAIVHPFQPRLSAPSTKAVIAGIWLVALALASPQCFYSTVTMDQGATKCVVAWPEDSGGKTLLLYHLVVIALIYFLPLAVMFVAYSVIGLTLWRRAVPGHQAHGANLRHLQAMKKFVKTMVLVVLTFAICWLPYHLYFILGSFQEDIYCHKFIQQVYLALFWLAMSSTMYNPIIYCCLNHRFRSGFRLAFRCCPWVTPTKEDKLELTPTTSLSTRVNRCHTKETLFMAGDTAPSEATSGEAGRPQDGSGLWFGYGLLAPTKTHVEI

melting point [°C]	IC50 (human NK2 receptor) [nM]	Structure (SMILES)
188 to 189	7.5	O=C1c2c(-c3ccccc3)ccnc2OCCCN1Cc1cc(C(F)(F)F)cc(C(F)(F)F)c1 [Reference Example 76, 5-[3,5-Bis(trifluoromethyl)benzyl]-2,3,4,5-tetrahydro-6-oxo-7-phenyl-6H-pyrido[2,3-b][1,5]oxazocine]
–	6.2	O=C1c2c(-c3ccccc3)c3cccnc3c(=O)n2CCCCN1Cc1ccccc1 [Reference Example 81, 7-Benzyl-6,7,8,9,10,11-hexahydro-6,13-dioxo-5-phenyl-13H-[1,4]diazocino[2,1-g][1,7]naphthyridine]
151 to 153	9.5	Cc1cc(-c2ccccc2)c2c(n1)OCCN(Cc1cc(C(F)(F)F)cc(C(F)(F)F)c1)C2=O [Reference Example 87, 4-[3,5-Bis(trifluoromethyl)benzyl]-2,3,4,5-tetrahydro-8-methyl-5-oxo-6-phenylpyrido[3,2-f][1,4]oxazepine]
